# Results: patent US20160339094A1, “BACTERIAL INFLUENCE OF HOST FEEDING AND EMOTION VIA CLPB PROTEIN MIMICRY OF A-MSH” (priority 2013, published 2016)
# Legend:
# [1] = tested on: polyclonal rabbit anti-α-MSH antisera
# Protocol: Following 2D-PAGE, E. coli cytoplasmic proteins were transferred onto Hybond-ECL PVDF membrane (GE Healthcare) by using a dry transfer method (Trans Blot Cell, Biorad, USA) and a constant current of 0.8 mA/cm^2 of the membrane size for 2 h. After transfer, membranes were blocked with 5% (wt:v) milk (Regilait, France) in phosphate buffered saline (PBS; 10 mmol/L […], pH 8; 150 mmol/L NaCl) plus 0.05% (v:v) Tween 20.
# The recombinant ClpB protein was customly produced by Delphi Genetics SA, (Gosselies, Belgium) in bacterial cultures by the ClpB cDNA synthesis and cloning into an expression vector.
# [2] = biological target: ClpB (Escherichia coli, UniProt P63284); settings: plasma extracted IgG of ClpB immunized mice vs other groups; SPR
# Sequence of ClpB (P63284 whole entry): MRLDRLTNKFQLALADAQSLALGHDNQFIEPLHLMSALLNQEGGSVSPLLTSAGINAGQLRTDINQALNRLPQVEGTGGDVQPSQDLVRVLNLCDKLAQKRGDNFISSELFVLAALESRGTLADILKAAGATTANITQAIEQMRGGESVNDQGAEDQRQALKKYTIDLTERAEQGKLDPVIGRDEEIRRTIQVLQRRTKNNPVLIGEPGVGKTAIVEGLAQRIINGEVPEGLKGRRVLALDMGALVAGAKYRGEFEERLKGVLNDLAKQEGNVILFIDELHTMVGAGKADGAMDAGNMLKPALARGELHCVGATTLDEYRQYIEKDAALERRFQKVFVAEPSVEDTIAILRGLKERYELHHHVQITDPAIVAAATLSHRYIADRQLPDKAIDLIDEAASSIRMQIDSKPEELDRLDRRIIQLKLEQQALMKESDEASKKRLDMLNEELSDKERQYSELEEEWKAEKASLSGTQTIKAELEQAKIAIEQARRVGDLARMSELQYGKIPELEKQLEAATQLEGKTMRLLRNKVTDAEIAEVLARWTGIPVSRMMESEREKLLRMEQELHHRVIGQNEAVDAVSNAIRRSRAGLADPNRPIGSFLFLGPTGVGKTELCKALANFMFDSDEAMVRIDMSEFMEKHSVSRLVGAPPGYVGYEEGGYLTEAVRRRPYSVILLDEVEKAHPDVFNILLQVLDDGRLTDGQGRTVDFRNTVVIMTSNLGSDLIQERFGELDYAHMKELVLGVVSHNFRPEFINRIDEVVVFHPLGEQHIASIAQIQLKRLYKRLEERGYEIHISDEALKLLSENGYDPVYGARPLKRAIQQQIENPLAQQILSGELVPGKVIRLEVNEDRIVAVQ
# Protocol: (§1) Extraction of plasma globulins was done by plasma acidification and separation on C-18 SEP column (Phoenix Pharmaceuticals, Burlingame, Calif.) according to the manufacturer instructions. In detail, 500 μl of mouse or rat plasma was mixed with 500 μl of buffer A (1% trifluoroacetic acid TFA in water). The column was activated in 1 ml of buffer B (60% acetonitrile in 1% TFA) by 3 min centrifugation with 700 rpm and rinsed 3 times with 3 ml of buffer A. Diluted plasma (1:1 in buffer A) was added to the column and the effluent (1 ml) was saved (frozen at −20° C.) for further purification of IgG. Total IgG were purified from the effluents of rat plasma samples using the Melon Gel Kit (Thermo Fisher Scientific, Rockford, Ill.) according to the manufacturer instructions. In brief, plasma effluents diluted 1:4 in kit's purification buffer was added on washed melon gel deposited in a column. Column was spinned 1 min at 6,000 r.p.m. and the IgG containing effluent was saved and frozen at −20° C. before lyophilization. Lyophilized IgG were reconstituted in the HBS-EP buffer (GE Healthcare, Piscataway, N.J.).
# (§2) For the affinity kinetic analysis, a multi-cycle method was run with five serial dilutions of each IgG sample: 3360, 1680, 840, 420 and 210 (nmol) including a duplicate of 840 nmol and a blank sample (HBS-EP buffer only).
# [3] = biological target: α-MSH (Homo sapiens, UniProt P01189); settings: IgG of ClpB immunized mice vs controls; SPR
# Protocol: as §1, §2
# [4] = tested on: C57B16 mice; assay: ClpB immunization in mice: plasma ClpB-, α-MSH- and ACTH-reactive autoantibody ELISA; format: in vivo
# Protocol: Two month-old male C57B16 mice (Janvier Labs L'Arbresle, France) were acclimated to the animal facility for with 12 h light-dark cycle, lights on at 7:00 a.m. and were kept in standard mouse holding cages (n=8) in each. […] During acclimatization mice were distributed between four cages to obtain the similar mean body weight per mouse per cage. After one week of acclimatization, mice from each cage were assigned to one of four study group and received following treatments: i) Group 1, ClpB immunization (n=8): ClpB protein (Delphi Genetics) 50 μg/mouse in 200 μl of 1:1 vol. of PBS with Complete Freund's Adjuvant (CFA, Sigma), intraperitoneally (I.P.); ii) Group 2, adjuvant injection controls (n=8): 200 μl of CFA in PBS (1:1 vol., I.P.); iii) Group 3, PBS injection controls (n=8): 200 μl of PBS (I.P.) and iiii) Group 4, Intact controls (n=8): received no injections, and then all mice were returned to their holding cages. Fifteen days later, mice were given a boost immunization and the following treatments: i) Group 1 (n=8), ClpB protein (Delphi Genetics) 50 μg/mouse in 200 μl of 1:1 vol. of PBS with Incomplete Freund's Adjuvant (IFA, Sigma) I.P.; ii) Group 2 (n=8): 200 ═l of IFA in PBS (1:1 vol., I.P.); iii) Group 3, (n=8): 200 ═l of PBS (I.P.) and iiii) Group 4, (n=8): received no injections.
# Two hours after the O-maze test, mice were killed by decapitation in a guillotine and trunk blood was collected into EDTA-containing tubes. Plasma was separated by centrifugation at 3,500 r.p.m. (1.4 g) for 10 min at 4° C. and stored at −80° C. before assay.
# Plates were washed (5 min×3) in phosphate-buffered saline (PBS) with 0.05% Tween 200, pH 7.4, and then incubated overnight at 4° C. with 100 μl of mouse or rat plasma diluted 1:200 in PBS to determine free autoAbs levels or diluted 1:200 in dissociative 3 M NaCl, 1.5 M glycine buffer, pH 8.9 to determine total autoAbs levels. The plates were washed (3×) and incubated with 100 μl of alkaline phosphatase (AP)-conjugated goat anti-rat IgG (1:2000), anti-rat IgM (1:1000), anti-mouse IgG (1:2000), or anti-mouse IgM (1:1000) all from Jackson ImmunoResearch Laboratories, Inc. (West Grove, Pa.). Following washing (3×), 100 μl of p-nitrophenyl phosphate solution (Sigma) was added as alkaline phosphatase substrate. After 40 min of incubation at room temperature, the reaction was stopped by adding 3N NaOH. The OD was determined at 405 nm using a microplate reader Metertech 960 (Metertech Inc., Taipei, Taiwan). Blank OD values resulting from the reading of plates without addition of plasma samples were subtracted from the sample OD values. Each determination was done in duplicate. The variation between duplicate values was less than 5%.
# [5] = tested on: C57B16 mice; assay: ClpB immunization in mice: body weight, food intake and feeding pattern (BioDAQ cages); format: in vivo
# Protocol: Animal care and experimentation were in accordance with guidelines established by the National Institutes of Health, USA and complied with both French and European Community regulations (Official Journal of the European Community L 358, 18 Dec. 1986). Two month-old male C57B16 mice (Janvier Labs L'Arbresle, France) were acclimated to the animal facility for with 12 h light-dark cycle, lights on at 7:00 a.m. and were kept in standard mouse holding cages (n=8) in each. Mice were fed ad libitum with standard pelleted rodent chow (RM1 diet, SDS, UK) with drinking water always available and were manipulated daily by gentle holding and measuring body weight. During acclimatization mice were distributed between four cages to obtain the similar mean body weight per mouse per cage. After one week of acclimatization, mice from each cage were assigned to one of four study group and received following treatments: i) Group 1, ClpB immunization (n=8): ClpB protein (Delphi Genetics) 50 μg/mouse in 200 μl of 1:1 vol. of PBS with Complete Freund's Adjuvant (CFA, Sigma), intraperitoneally (I.P.); ii) Group 2, adjuvant injection controls (n=8): 200 μl of CFA in PBS (1:1 vol., I.P.); iii) Group 3, PBS injection controls (n=8): 200 μl of PBS (I.P.) and iiii) Group 4, Intact controls (n=8): received no injections, and then all mice were returned to their holding cages. Fifteen days later, mice were given a boost immunization and the following treatments: i) Group 1 (n=8), ClpB protein (Delphi Genetics) 50 μg/mouse in 200 μl of 1:1 vol. of PBS with Incomplete Freund's Adjuvant (IFA, Sigma) I.P.; ii) Group 2 (n=8): 200 ═l of IFA in PBS (1:1 vol., I.P.); iii) Group 3, (n=8): 200 ═l of PBS (I.P.) and iiii) Group 4, (n=8): received no injections.
# Next day after the boost, mice were placed individually in the BioDAQ mouse cages (Research Diets, Inc., New Brunswick, N.J.) each equipped with an automatic feeding monitor. Food (SERLAB, Montataire France) and drinking water were available ad libitum and body weight was measured daily. After three days of acclimation to the BioDAQ cages, mice received the following treatments: Groups 1, 2 and 3 (each n=8) i.e. mice which have been immunized with ClpB; injected with adjuvants and with PBS, respectively, […] PBS (I.P.) at 10 a.m. The control mice (n=8) received PBS only (I.P.). Feeding data was continuously monitored and analysed using the BioDAQ data viewer 2.3.07 (Research Diets). For the meal pattern analysis, the inter-meal interval was set at 300 sec.
# [6] = tested on: C57B16 mice; assay: Locomotor activity and anxiety tests (open field, elevated O-maze) in immunized mice; format: in vivo
# Protocol: After the feeding study, mice were placed in individual mouse holding cages with food and water available ad libitum and were analyzed for locomotor activity and anxiety in O-maze tests performed during two consecutive days. Two hours after the O-maze test, mice were killed by decapitation in a guillotine and trunk blood was collected into EDTA-containing tubes. Plasma was separated by centrifugation at 3,500 r.p.m. ([…]) for 10 min at 4° C. and stored at −80° C. before assay.
# After feeding study in the BioDAQ cages, mice were analyzed for locomotor activity using a Versamax Animal Activity Monitor (AccuScan Instruments, Inc., Columbus, Ohio). Next day after the locomotor activity test all mice were tested for their anxiety in an elevated-O-maze. The elevated-O-maze is a variation of more commonly used elevated-plus-maze pharmacologically validated for anxiety testing in rodents (Crawley, J. N. and Bailey, K. R., Methods of behavior analysis in neuroscience, 77-101 (CRC Press, 2009)). The advantage of the O-maze is that it lacks the ambiguous central square of the traditional plus-maze. The O-maze (Med Associate, Inc., St. Albans, Vt.) consisted of a circular infrared platform (outer diameter 120 cm) elevated 80 cm above the floor, featuring two open and two closed segments made of grey plastic. The closed segments were enclosed by walls extending 20 cm above the surface of the maze and covered with a black infrared Plexiglas lid. Each test started by placing the mouse into one of the two closed segments. The test lasted 5 min and was recorded using a video-camera placed above the O-maze and the EthoVision video tracking software (Noldus IT, Wageningen, The Netherlands). Measurements of distance and time spent in the open and closed segments were analyzed. Between each mouse tests, the O-maze was cleaned with a 30% alcohol.
# [7] = day 22, single injection of α-MSH 100 μg/kg body weight, I.P., non-immunized vs ClpB-immunized vs controls
substance,measurement,setting,value
"ClpB: recombinant 857 amino acid chaperone protein ClpB of E. coli K12 (SEQ ID NO: 1), injected I.P. with Freund's adjuvant for immunization",Western blot detection by anti-α-MSH antiserum after trypsin digestion,[1]; ClpB digested by trypsin,No band was detected
same,Western blot detection by anti-α-MSH antiserum,[1]; intact recombinant ClpB,single 96 kDa band
same,affinity of anti-ClpB IgG for ClpB,[2],lower affinities
same,affinity of IgG for α-MSH,[3],lower affinities for α-MSH
same,plasma levels of α-MSH-reactive IgG,[4]; ClpB immunized mice,Increased plasma levels
same,plasma levels of ClpB IgG,"[4]; ClpB immunized mice vs other groups (adjuvant, PBS, controls)",higher plasma levels
same,plasma ACTH-reactive IgG,[4]; among the groups,No significant differences
same,plasma levels of α-MSH IgM autoAbs,[4]; between the groups,did not significantly differ
same,meal number,[5]; BioDAQ,did not change
same,meal size,"[5]; BioDAQ, last 10 days",increased meal size
same,higher mean daily food intake as compared to other groups,"[5]; BioDAQ, last 10 days of the experiment",13%
same,body weight for few days after injections,"[5]; ClpB and CFA, I.P., expected inflammatory response to immunization",lower body weight
same,higher body weight vs. controls at the end of the experiment,"[5]; ClpB immunized mice, 32 days study",5%
same,24 h food intake following α-MSH injection,[5]; [7],did not differ from controls
same,body weight 24 h following α-MSH injection,[5]; [7],did not differ from controls
same,parameters in the O-maze open arms,[6]; ClpB group,did not significantly change
same,time spent in the closed arms of the O-maze,[6]; ClpB-immunized mice vs all other groups,less time
same,distance moved in the closed arms of the O-maze,[6]; ClpB-immunized mice vs controls,shorter distance
same,time spent in the open vs. border areas,"[6]; open field, among the groups",did not significantly differ
same,total locomotor activity,"[6]; open field, among the groups",did not significantly differ
